# Source: PubChem BioAssay AID192 (DTP/NCI, 2004)
# Several values for one entry are separate records, joined by “and”; a condition that tells them apart may be missing. Equal entries are not always repeated. Inconclusive results and toxic doses are left out.
# System: BDF1 mice, B16 melanoma ip, median survival T/C
# Assay: NCI In Vivo Anticancer Drug Screen. Data for tumor model B16 Melanoma (intraperitoneal) in B6D2F1 (BDF1) mice
# Conditions: endpoint: median survival time, higher = longer survival
# Method: The antitumor activity of compounds was measured in mice bearing transplantable tumors. Survival or tumor size were measured and the results are expressed as the measurement made in the treated group (T) divided by the measurement made in the vehicle treated control group (C). The tumor model used in this assay is B16 Melanoma (intraperitoneal) in B6D2F1 (BDF1) mice
# [1] = dose: 100.0 mg/kg/injection, schedule: Q04DX003 (ip), vehicle: gum acacia
# [2] = dose: 200.0 mg/kg/injection, schedule: Q04DX003 (ip), vehicle: gum acacia
# [3] = dose: 1.56 mg/kg/injection, schedule: Q01DX009 (ip), vehicle: water
# [4] = dose: 3.13 mg/kg/injection, schedule: Q01DX009 (ip), vehicle: water
# [5] = dose: 6.25 mg/kg/injection, schedule: Q01DX009 (ip), vehicle: water
# [6] = dose: 12.5 mg/kg/injection, schedule: Q01DX009 (ip), vehicle: water
# [7] = dose: 25.0 mg/kg/injection, schedule: Q01DX009 (ip), vehicle: saline with Tween-80
# [8] = dose: 100.0 mg/kg/injection, schedule: Q01DX009 (ip), vehicle: Klucel (hydroxypropylcellulose) (HPC)
# [9] = dose: 200.0 mg/kg/injection, schedule: Q01DX009 (ip), vehicle: Klucel (hydroxypropylcellulose) (HPC)
# [10] = dose: 50.0 mg/kg/injection, schedule: Q01DX009 (ip), vehicle: saline with Tween-80
# [11] = dose: 100.0 mg/kg/injection, schedule: Q01DX009 (ip), vehicle: saline with Tween-80
compound,measurement,setting,value
CCOC(=O)Nc1ccccc1,T/C,[1],95 % of control
same,T/C,[2],102 % of control
Nc1n[n+](-c2ccccc2)no1,T/C,[3],102 % of control
same,T/C,"dose: 3.12 mg/kg/injection, schedule: Q01DX009 (ip), vehicle: water",89 % of control
same,T/C,[4],96 % of control
same,T/C,[5],102 % of control and 105 % of control
same,T/C,[6],119 % of control
CCOC(=O)C(C)Oc1ccc(Cl)cc1 (centres undefined),T/C,"dose: 50.0 mg/kg/injection, schedule: Q01DX009 (ip), vehicle: other",111 % of control
same,T/C,"dose: 100.0 mg/kg/injection, schedule: Q01DX009 (ip), vehicle: other",104 % of control
same,T/C,"dose: 200.0 mg/kg/injection, schedule: Q01DX009 (ip), vehicle: other",106 % of control
same,T/C,"dose: 400.0 mg/kg/injection, schedule: Q01DX009 (ip), vehicle: other",102 % of control
O=C1N=C(Oc2ccccc2)SC1=O,T/C,"dose: 12.5 mg/kg/injection, schedule: Q01DX009 (ip), vehicle: saline with Tween-80",101 % of control
same,T/C,[7],96 % of control
NC(=S)SCCC(=O)O,T/C,[8],96 % of control
same,T/C,[9],86 % of control
CCOC(=O)c1cc(C(=O)OCC)c(=O)oc1OCC,T/C,[7],102 % of control
same,T/C,[10],100 % of control
same,T/C,[11],100 % of control
CSCCC(NC(=O)OCC1c2ccccc2-c2ccccc21)C(=O)O (centres undefined),T/C,"dose: 50.0 mg/kg/injection, schedule: Q01DX009 (ip), vehicle: Klucel (hydroxypropylcellulose) (HPC)",103 % of control
same,T/C,[8],98 % of control
same,T/C,[9],87 % of control
CC1OC(OCc2ccc(-c3ccccc3)cc2)CC(N)C1O (centres undefined),T/C,[3],105 % of control
same,T/C,[4],95 % of control
same,T/C,[5],99 % of control
same,T/C,[6],104 % of control
same,T/C,"dose: 25.0 mg/kg/injection, schedule: Q01DX009 (ip), vehicle: water",87 % of control
CC(=O)N(C)N=Nc1ccc(C)cc1,T/C,"dose: 8.75 mg/kg/injection, schedule: Q01DX009 (ip), vehicle: Klucel (hydroxypropylcellulose) (HPC)",103 % of control
same,T/C,"dose: 17.5 mg/kg/injection, schedule: Q01DX009 (ip), vehicle: Klucel (hydroxypropylcellulose) (HPC)",103 % of control
O=C1Nc2ccc(Cl)cc2C(c2ccccc2)=NC1O (centres undefined),T/C,"dose: 6.25 mg/kg/injection, schedule: Q01DX009 (ip), vehicle: saline",116 % of control
same,T/C,"dose: 50.0 mg/kg/injection, schedule: Q01DX009 (ip), vehicle: saline",95 % of control
same,T/C,"dose: 100.0 mg/kg/injection, schedule: Q01DX009 (ip), vehicle: saline",95 % of control
same,T/C,"dose: 200.0 mg/kg/injection, schedule: Q01DX009 (ip), vehicle: saline",89 % of control
same,T/C,"dose: 400.0 mg/kg/injection, schedule: Q01DX009 (ip), vehicle: saline",89 % of control
[Cl][Pt+2][Cl].[NH-]C1CCC1.[NH-]C1CCC1,T/C,"dose: 0.5 mg/kg/injection, schedule: Q01DX009 (ip), vehicle: saline with Tween-80",108 % of control
same,T/C,"dose: 1.0 mg/kg/injection, schedule: Q01DX009 (ip), vehicle: saline with Tween-80",117 % of control
same,T/C,"dose: 2.0 mg/kg/injection, schedule: Q01DX009 (ip), vehicle: saline with Tween-80",115 % of control
same,T/C,"dose: 5.0 mg/kg/injection, schedule: Q01DX009 (ip), vehicle: Klucel (hydroxypropylcellulose) (HPC)",112 % of control
CCC(C)C1NC(=O)C(NC(=O)c2c3nc4c(C(=O)NC5C(=O)NC(C(C)CC)C(=O)N6CCCC6C(=O)N(C)CC(=O)N(C)C(C(C)C)C(=O)OC5C)cc(N)c(C)c4oc-3c(C)c(=O)c2N)C(C)OC(=O)C(C(C)C)N(C)C(=O)CN(C)C(=O)C2CCCN2C1=O (centres undefined),T/C,"dose: 12.5 micrograms/kg/injection, schedule: Q01DX009 (ip), vehicle: water",110 % of control
same,T/C,"dose: 25.0 micrograms/kg/injection, schedule: Q01DX009 (ip), vehicle: water",104 % of control
same,T/C,"dose: 118.0 micrograms/kg/injection, schedule: Q01DX009 (ip), vehicle: water",161 % of control
same,T/C,"dose: 400.0 micrograms/kg/injection, schedule: Q01DX009 (ip), vehicle: water",159 % of control
O=C1C=C(c2ccccc2)C(O)(c2ccccc2)C1 (centres undefined),T/C,[10],97 % of control
same,T/C,[11],97 % of control
same,T/C,"dose: 200.0 mg/kg/injection, schedule: Q01DX009 (ip), vehicle: saline with Tween-80",88 % of control
Cc1cc(Cc2cc(C)cc(C(C)(C)C)c2O)c(O)c(Cc2cc(C)cc(C(C)(C)C)c2O)c1,T/C,[1],97 % of control
same,T/C,[2],100 % of control
Cc1c(Cl)cccc1NC(=O)Oc1ccc(Cl)cc1,T/C,[8],98 % of control
same,T/C,[9],101 % of control
same,T/C,"dose: 400.0 mg/kg/injection, schedule: Q01DX009 (ip), vehicle: Klucel (hydroxypropylcellulose) (HPC)",96 % of control
